Drawing on ChEMBL document CHEMBL5465560, “Selectivity Literature for EUbOPEN Chemogenomic Library” (2024), this text covers pXC50, % of control and % of inhibition for six compounds.

The target of assay [1] is Cannabinoid receptor 2 (Homo sapiens) (UniProt P34972). Kind of assay: Selectivity interaction (Panel of kinases, GPCRs, ion channels and transporters (enzymatic assay)) EUB0000266bCl CNR2.
For assay [2], the target named is T1, Tyrosine-protein kinase TXK (Homo sapiens) (UniProt P42681).
T1 sequence (whole entry): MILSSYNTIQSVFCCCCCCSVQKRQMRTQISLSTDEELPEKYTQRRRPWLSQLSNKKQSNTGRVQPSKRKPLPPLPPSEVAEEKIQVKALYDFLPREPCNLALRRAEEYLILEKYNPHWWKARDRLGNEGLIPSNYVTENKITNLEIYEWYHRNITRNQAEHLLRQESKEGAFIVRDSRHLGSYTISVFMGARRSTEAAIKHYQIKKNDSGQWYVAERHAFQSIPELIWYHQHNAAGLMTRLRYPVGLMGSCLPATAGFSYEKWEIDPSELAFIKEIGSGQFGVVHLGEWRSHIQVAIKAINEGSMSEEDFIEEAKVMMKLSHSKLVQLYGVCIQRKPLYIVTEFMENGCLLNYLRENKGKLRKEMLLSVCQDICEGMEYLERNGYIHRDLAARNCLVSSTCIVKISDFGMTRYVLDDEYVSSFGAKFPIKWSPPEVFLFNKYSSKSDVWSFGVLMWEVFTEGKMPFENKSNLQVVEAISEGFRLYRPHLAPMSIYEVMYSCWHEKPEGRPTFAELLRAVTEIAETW
Kind of assay: Selectivity interaction (KinomeScan (DiscoverX)) EUB0000695a TXK. As to conditions: at 100 nM.

Assay [3] addresses T2, Cyclin-G-associated kinase (Homo sapiens) (UniProt O14976).
T2 sequence (whole entry): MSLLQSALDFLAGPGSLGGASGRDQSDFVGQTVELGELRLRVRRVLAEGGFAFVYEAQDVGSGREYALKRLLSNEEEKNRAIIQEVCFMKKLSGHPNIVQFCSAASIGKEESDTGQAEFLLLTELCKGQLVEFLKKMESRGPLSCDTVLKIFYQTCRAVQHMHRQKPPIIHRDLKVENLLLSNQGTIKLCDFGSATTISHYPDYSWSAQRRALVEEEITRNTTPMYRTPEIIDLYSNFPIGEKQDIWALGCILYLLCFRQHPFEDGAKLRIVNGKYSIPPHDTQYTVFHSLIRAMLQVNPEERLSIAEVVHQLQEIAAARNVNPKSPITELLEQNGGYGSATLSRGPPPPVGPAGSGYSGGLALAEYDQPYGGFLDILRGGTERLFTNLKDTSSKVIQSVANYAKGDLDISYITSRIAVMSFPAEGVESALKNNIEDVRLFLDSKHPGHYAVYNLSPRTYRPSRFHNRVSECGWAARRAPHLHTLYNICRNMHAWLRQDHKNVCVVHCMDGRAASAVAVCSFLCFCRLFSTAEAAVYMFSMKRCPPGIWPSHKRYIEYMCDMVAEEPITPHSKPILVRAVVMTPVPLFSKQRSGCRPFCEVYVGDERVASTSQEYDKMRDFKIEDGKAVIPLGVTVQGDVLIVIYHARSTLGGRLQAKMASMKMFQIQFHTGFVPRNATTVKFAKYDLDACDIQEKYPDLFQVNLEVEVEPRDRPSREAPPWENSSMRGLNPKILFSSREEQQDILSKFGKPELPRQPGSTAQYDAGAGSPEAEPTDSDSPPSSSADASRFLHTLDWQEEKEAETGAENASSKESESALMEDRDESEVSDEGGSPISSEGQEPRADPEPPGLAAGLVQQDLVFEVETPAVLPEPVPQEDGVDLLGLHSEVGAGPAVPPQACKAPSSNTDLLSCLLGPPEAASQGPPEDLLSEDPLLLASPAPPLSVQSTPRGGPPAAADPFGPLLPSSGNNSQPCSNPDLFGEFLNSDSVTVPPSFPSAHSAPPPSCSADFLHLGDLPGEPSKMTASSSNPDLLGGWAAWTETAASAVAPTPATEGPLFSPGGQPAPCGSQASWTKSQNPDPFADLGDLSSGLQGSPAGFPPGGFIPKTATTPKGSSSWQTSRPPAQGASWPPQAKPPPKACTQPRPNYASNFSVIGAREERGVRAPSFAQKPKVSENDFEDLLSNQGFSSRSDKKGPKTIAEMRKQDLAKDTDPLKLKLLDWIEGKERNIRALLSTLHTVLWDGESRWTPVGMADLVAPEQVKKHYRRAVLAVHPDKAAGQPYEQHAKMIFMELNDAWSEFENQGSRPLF
Kind of assay: Selectivity interaction (KinomeScan (DiscoverX)) EUB0000666a GAK. The note with it: at 10 µM.

In assay [4] the target is Serine/threonine-protein kinase Chk2 (Homo sapiens) (UniProt O96017). Kind of assay: Selectivity interaction (SelectScreen profiling (Invitrogen)) EUB0000607a CHEK2. As to conditions: at 2 µM.
In assay [5] the target is T3, Mitogen-activated protein kinase kinase kinase kinase 2 (Homo sapiens) (UniProt Q12851).
T3 sequence (whole entry): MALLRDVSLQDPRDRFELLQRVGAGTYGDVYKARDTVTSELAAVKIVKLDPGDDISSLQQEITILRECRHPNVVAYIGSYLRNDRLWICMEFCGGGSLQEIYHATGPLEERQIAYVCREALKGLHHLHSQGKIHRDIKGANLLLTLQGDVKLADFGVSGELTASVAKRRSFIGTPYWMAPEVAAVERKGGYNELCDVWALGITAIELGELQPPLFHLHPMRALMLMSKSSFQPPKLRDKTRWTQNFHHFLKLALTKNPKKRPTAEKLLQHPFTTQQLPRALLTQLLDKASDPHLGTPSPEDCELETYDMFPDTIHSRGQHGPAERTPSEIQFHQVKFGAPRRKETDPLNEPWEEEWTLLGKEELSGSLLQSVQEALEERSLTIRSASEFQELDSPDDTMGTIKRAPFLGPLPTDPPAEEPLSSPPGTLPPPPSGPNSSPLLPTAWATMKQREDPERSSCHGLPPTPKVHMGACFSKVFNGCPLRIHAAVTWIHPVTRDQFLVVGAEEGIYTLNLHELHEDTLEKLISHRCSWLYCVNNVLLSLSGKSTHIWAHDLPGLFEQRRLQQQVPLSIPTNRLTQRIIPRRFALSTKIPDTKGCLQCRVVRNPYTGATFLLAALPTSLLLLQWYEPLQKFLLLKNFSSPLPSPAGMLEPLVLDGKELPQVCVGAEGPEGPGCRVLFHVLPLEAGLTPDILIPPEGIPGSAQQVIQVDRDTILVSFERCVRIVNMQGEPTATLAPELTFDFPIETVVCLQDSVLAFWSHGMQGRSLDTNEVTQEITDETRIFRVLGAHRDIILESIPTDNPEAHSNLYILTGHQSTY
Briefly: Selectivity interaction (ActivX KiNativ screen (kinase selectivity in THP-1 cell lysates)) EUB0000639a MAP4K2. Type of assay: subcellular. As to conditions: lysate, at 1 µM.

In assay [6] the target is Ribosomal protein S6 kinase alpha-1 (Homo sapiens, UniProt Q15418). Kind of assay: Selectivity interaction (ActivX KiNativ screen (kinase selectivity in THP-1 cell lysates)) EUB0000639a RPS6KA1. Type of assay: subcellular. As to conditions: lysate, at 5 µM.
In assay [7] the target is Serine/threonine-protein kinase 33 (Homo sapiens) (UniProt Q9BYT3). Briefly: Selectivity interaction (KinomeScan (DiscoverX)) EUB0000618a STK33. The note with it: at 10 µM.
Serine/threonine-protein kinase 33 (Homo sapiens), sequence (Q9BYT3 whole entry, looked up): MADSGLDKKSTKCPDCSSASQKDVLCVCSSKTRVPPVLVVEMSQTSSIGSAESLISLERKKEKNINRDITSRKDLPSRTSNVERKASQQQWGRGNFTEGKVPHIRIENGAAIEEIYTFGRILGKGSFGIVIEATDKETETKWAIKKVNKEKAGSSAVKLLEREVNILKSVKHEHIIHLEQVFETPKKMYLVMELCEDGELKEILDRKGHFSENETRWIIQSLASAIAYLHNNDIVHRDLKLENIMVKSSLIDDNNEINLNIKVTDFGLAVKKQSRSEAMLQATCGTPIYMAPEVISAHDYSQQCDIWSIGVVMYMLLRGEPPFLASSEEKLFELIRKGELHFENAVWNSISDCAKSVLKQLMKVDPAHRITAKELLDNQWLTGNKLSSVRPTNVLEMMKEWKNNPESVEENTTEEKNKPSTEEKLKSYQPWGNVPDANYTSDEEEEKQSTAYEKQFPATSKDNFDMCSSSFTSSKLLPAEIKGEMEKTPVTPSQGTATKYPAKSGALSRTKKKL

Serine/threonine-protein kinase Chk2 (Homo sapiens), sequence (O96017 whole entry): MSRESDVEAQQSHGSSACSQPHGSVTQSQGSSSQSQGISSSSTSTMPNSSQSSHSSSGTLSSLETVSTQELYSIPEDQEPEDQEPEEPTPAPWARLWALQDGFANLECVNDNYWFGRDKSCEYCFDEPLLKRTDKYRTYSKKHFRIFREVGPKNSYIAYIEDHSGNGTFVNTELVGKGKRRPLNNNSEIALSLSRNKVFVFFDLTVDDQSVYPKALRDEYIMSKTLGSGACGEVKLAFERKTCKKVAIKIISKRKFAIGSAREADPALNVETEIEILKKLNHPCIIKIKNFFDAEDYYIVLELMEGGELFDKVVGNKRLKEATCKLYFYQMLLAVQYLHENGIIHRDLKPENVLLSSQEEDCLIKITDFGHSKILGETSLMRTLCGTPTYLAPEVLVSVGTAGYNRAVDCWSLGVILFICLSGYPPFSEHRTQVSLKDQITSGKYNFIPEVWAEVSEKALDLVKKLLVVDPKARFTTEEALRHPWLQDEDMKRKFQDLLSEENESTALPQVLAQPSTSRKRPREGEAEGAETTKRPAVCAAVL
Ribosomal protein S6 kinase alpha-1, sequence (Q15418 whole entry): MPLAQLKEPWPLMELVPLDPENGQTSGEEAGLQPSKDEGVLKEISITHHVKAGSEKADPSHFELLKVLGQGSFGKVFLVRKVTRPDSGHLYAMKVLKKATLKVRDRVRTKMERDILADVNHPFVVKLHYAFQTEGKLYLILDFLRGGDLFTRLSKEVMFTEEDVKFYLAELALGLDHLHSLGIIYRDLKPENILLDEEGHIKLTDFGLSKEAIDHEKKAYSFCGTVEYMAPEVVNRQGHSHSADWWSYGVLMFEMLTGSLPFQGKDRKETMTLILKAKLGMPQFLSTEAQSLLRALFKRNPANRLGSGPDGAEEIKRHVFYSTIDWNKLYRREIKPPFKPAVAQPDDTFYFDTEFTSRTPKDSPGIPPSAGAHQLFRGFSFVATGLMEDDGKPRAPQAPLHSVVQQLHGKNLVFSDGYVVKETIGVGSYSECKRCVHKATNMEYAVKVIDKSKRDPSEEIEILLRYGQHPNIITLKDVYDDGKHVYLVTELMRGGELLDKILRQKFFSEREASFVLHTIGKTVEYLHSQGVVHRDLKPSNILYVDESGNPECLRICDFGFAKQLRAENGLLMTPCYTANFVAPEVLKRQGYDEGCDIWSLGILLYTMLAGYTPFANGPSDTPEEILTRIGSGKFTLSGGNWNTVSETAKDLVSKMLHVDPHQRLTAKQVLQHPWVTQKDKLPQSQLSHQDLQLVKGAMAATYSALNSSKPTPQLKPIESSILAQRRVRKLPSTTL
Cannabinoid receptor 2 (Homo sapiens), sequence (P34972 whole entry): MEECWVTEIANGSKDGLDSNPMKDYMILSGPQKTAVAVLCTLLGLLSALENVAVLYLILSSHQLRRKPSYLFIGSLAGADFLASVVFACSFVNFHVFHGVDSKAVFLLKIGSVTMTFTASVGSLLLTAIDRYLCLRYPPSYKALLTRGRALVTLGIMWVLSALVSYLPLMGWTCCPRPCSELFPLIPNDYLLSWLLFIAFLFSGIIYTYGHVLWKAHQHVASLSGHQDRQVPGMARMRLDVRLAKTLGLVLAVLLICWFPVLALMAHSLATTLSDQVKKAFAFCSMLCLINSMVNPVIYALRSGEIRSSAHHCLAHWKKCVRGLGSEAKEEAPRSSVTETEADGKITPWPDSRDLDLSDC

On to `CCn1c(-c2nc3cc(C(=O)N4CCCC(N)C4)ccc3n2C)cc2ccccc21` (configuration not stated), for which the pXC50 in assay [1] is under 4 M.

For `Cc1cc(F)c(C(=O)Nc2cccc(-c3nncn3C(C)C)n2)cc1-n1cnc(C2CC2)c1`, the % of control in assay [2] turned out to be 98%.

`O=C(NOC[C@H](O)CO)c1ccc(F)c(F)c1Nc1ccc(I)cc1F` gave a % of control in assay [3] of 71%.

For `CNC(=O)Nc1ccc(-c2nc(N3CC4CCC(C3)O4)c3cnn(C4CCC5(CC4)OCCO5)c3n2)cc1`, in assay [4], the % of inhibition is 3%.

With `CC[C@@H]1[C@H](F)C(=O)N[C@@H]1COc1nccc2cc(C(N)=O)c(OC)cc12` [ZIMLOVISERTIB], the % of inhibition is -10.5% in assay [5] and 11.7% in assay [6].

In turn, `O[C@H]1CC[C@H](Nc2ncc3nc(Nc4c(F)cc(F)cc4F)n([C@H]4CCOC4)c3n2)CC1` displayed a % of control in assay [7] of 100%.
